This is an account of results in patent US8828982B2, “Pyrimidine derivatives for the prevention of HIV infection” (Janssen Pharmaceutica N.V., priority 2003, dated 2014).

Holding throughout (assay type): cell-based
For test [1], the system named is monotropic HIV strain Ba-L. In words: In vitro model c) (standard infection experiment), MO-DC/CD4(+) T cell co-cultures, ELISA for HIV antigens after 14 days. The conditions noted are these: concentration suppressing 50% of viral replication at end of primary culture (14 days), test compound present throughout, MOI 10^-3. The protocol:
Monocyte-derived dendritic cells (MO-DC) were infected for 2 hours with the monotropic HIV strain Ba-L at a multiplicity of infection (MOI) of 10^−3. After infection, cells were washed 6 times and resuspended in 10% BCS at 400.000 cells/ml. Autologous CD4(+) T cells were purified out of the lymphocyte fraction of the same elutration as the MO-DC and used at a concentration of 2×10^6 cells/ml ((ratio MO-DC/CD4(+) T: 1/5).
A serial dilution of a compound of formula (I) (test compound) was added to the MO-DC/CD4(+) T cell co-cultures. Each experiment was done in 96-well plates, in which each cup contained 50 μl of MO-DC, 50 μl of CD4(+) T cells and 100 μl of test compound. Half of the culture medium, with test compound, was refreshed twice weekly, during 14 days. Supernatants were analysed by ELISA after 14 days of culture for the presence of HIV antigens. To determine antiviral activity, the test compound concentration able to suppress 50% of the viral replication at the end of the primary cultures (EC50) was measured.
(In an ELISA, binding on a coated surface is turned into a signal by an enzyme label.)

For test [2], the system named is MO-DC/CD4(+) T cell co-cultures (MO-DC stimulators, allogenic CD4(+) T cells responders). As to the kind of experiment: Immune suppressive activity in mixed leucocyte culture (MLC), standard assay. As to conditions: concentration inhibiting 50% of [methyl-3H]-Thymidine incorporation, 5 days of culture, compound present throughout, read-out: ISC50 (nM) (Test B, standard assay)). The protocol: The compounds of formula (I) were tested for their immune-suppressive activity (defined as ISC50 value) in a classical MLC in which monocyte-derived dendritic cells (MO-DC) were used as stimulators and allogenic CD4(+) T cells as responders. A dilution series of test compound was added to the MO-DC/CD4(+) T cell co-cultures. After 5 days of culture, 20 μl of [methyl-3H]-Thymidine was added to each well and cultures were harvested after 7 hours. Analysis was done on a Topcount scintillation counter. The immune suppressive concentration (ISC50) is defined as the test compound concentration inhibiting 50% of normal immune proliferation (test compound concentration inhibiting 50% of [methyl-3H]-Thymidine incorporation). (standard MLC assay)

A further test relates to HIV strain Ba-L. In words: In vitro model b) (24 hour infection experiment), MO-DC co-cultured with autologous T4 cells. As to the method: Monocyte-derived dendritic cells (MO-DC) were co-cultured with autologous T4 cells and infected with HIV strain Ba-L at a multiplicity of infection (MOI) of 10^−3. A serial dilution of test compound was added at the time of infection. After 24 hours, 96-well plates were washed 3 times (test compound and free virus washed away) and medium (without test compound) was added. Half of the medium was refreshed twice a week. Culture supernatants were harvested after 7 and 14 days of culture. After 14 days, cultures were washed 3 times and PHA/IL-2 stimulated PBMC were added for a secondary culture to check for viral rescue. During secondary culture, half of the medium was refreshed twice weekly (IL-2 medium, without test compound). Supernatants were harvested after 1 and 2 weeks of secondary culture. After 2 weeks of secondary culture, cells were also harvested for PCR analysis. Supernatants were analysed in ELISA for the presence of HIV […] during primary and secondary culture.

For test [3], the system named is MO-DC/CD4(+) T cell co-cultures (MO-DC stimulators, allogenic CD4(+) T cells responders). As to the kind of experiment: Immune suppressive activity in mixed leucocyte culture (MLC), 24 hour assay. The conditions noted are these: test compound present only during first 24 hours of the 5-day culture; read-out: ISC50 (nM) (Test B, 24 hour assay)). As to the method: The compounds of formula (I) were tested for their immune-suppressive activity (defined as ISC50 value) in a classical MLC in which monocyte-derived dendritic cells (MO-DC) were used as stimulators and allogenic CD4(+) T cells as responders.
A dilution series of test compound was added to the MO-DC/CD4(+) T cell co-cultures. After 5 days of culture, 20 μl of [methyl-3H]-Thymidine was added to each well and cultures were harvested after 7 hours. Analysis was done on a Topcount scintillation counter. The immune suppressive concentration (ISC50) is defined as the test compound concentration inhibiting 50% of normal immune proliferation (test compound concentration inhibiting 50% of [methyl-3H]-Thymidine incorporation). (standard MLC assay)
For the 24 hour assay, the test compound was only present during the first 24 hours of the 5-day culture period. After 24 hours, the cultures were washed (three times) and culture medium without compound was added. The experimental set-up was from then on similar to the standard MLC assay described above.

A further test has as its system HIV. In words: HIV replication inhibition test of "C. Pharmacological example" of WO 2003/016306. The conditions noted are these: test described in WO 2003/016306. The source says:
Due to their antiretroviral properties, particularly their anti-HIV properties, especially their anti-HIV-1-activity, the compounds of formula (I), their N-oxides, pharmaceutically acceptable addition salts, quaternary amines and stereochemically isomeric forms thereof, are useful in the treatment of individuals infected by HIV. The HIV replication inhibiting effect of the compounds of formula (I) is described in WO 2003/016306. Compound 255 has a pIC50 value of 9.00 when tested in the test described under the heading “C. Pharmacological example” of WO 2003/016306.

Molecule `Cc1cc(/C=C/c2ccncc2)cc(C)c1Nc1ccnc(Nc2ccc(C#N)cc2)n1` [Compound 162] gave an EC50 in test [1] (Human immunodeficiency virus 1, BAL, T-cell, 336 h) of 5.5 nM. In addition, in test [2] (Leucocyte, 120 h), the IC50 came out at 1140 nM.

As to `Cc1cc(/C=C/C#N)cc(C)c1Oc1ccnc(Nc2ccc(C#N)cc2)n1` [Compound 255, 4-[[4-[4-(2-cyanoethenyl)-2,6-dimethylphenoxy]-2-pyrimidinyl]amino]benzonitrile (E)], the concentration giving a half-maximal response (EC50) in test [1] came to 0.05 nM; in the test on HIV strain Ba-L (test compound added at time of infection and washed away after 24 hours, MOI 10^-3), 2 nM. Besides, the results for the IC50 in test [2] and in test [3] were 20200 nM and 24600 nM, respectively. Moreover, the “cups tested positive in ELISA after 7 days of primary culture” value in the test on HIV strain Ba-L (concentrations ranging from 10,000 to 10 nM, 6 cups) is recorded as “none out of 6”. This molecule also registered a pIC50 with HIV of 9.00.

What is called EC50 is the concentration needed to bring the measured effect to its halfway point. Higher therefore signals lower potency in that assay. For orientation: pIC50 means −log10 of the IC50, conventionally taken in molar units.
